# Source: US20120016011A1, “RNA Interference Mediated Inhibition of Connective Tissue Growth Factor (CTGF) Gene Expression Using Short Interfering Nucleic Acid (siNA)” (Merck Sharp & Dohme Corp., priority 2009, published 2012)
# [invAb] = inverted abasic unit; m = 2'-O-methyl; r = 2'-OH (RNA); f = 2'-fluoro
# Assays:
# CTGF mRNA [1] = test: CTGF mRNA knockdown (Taqman RT-PCR) after siNA transfection of mouse NIH 3T3 cells; assay type: cell-based; details: mouse NIH3T3 cells, 10 nM siNA, 24 hrs, average of 3 experiments, vs non-targeting control
# Method in brief: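 Mouse NIH 3T3 cells, 5000/well, transfected 24 h after plating with siNA at 10 nM final using RNAiMax, 24 h exposure without media change. CTGF mRNA by TaqMan RT-qPCR with GAPDH, knockdown via comparative Ct (2^−ΔΔCt) against non-targeting control siNA.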
# CTGF mRNA [2] = test: CTGF mRNA knockdown (Taqman RT-PCR) after siNA transfection of human NHLF cells; assay type: cell-based; details: for % KD Human: 10 nM siNA, 24 hrs, average of 3 experiments, vs non-targeting control; for % KD CTGF mRNA at 10 nM / IC50: mean ± S.D.
# Method in brief: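 Normal human lung fibroblasts (5000 cells/well) were transfected 24 h after plating with 10 nM siNA complexed with RNAiMax and harvested 24 h later without a media change. CTGF mRNA was measured by TaqMan RT-qPCR on Cells-to-CT lysates, with β-actin and GAPDH assayed alongside. Knockdown was calculated by comparative Ct (ΔΔCt) against non-targeting control siNA.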
# [3] = system: collagen secretion (PICP) by HLF cells; test: Pro-collagen Type I C-terminal Pro-peptide (PICP) MSD assay, collagen secretion by HLF cells; assay type: cell-based, human; details: TGF-β1 treated, vs universal control siNA, FIG. 13
# Experimental: A Pro-collagen Type I C-terminal Pro-peptide (PICP) MSD assay was done on HLF cells transfected with siNAs and treated with TGF-β1. Supernatant from the HLF cells transfected with siNAs and treated with TGF-β1, was removed 72 hours after transfection and 48 hours after treatment. Plates and reagents (except antibodies) were purchased from Meso Scale Discovery. High bind, small spot 96 well MSD plates were spotted with 20 ng/well of the capture antibody (pro-collagen type I C-terminal pro-peptide, human PICP, Caltag Medsystmes) using a TTP LabTech Mosquito. Plates were left to dry for 48 hours before use. The MSD assay was performed as outlined: Plates were blocked with 30 mg/ml Blocker A, sealed and then shook on a plate shaker for 1 hour at RT. Plates were washed 3× with MSD Tris wash buffer. 25 μl of the supernatants were added for 1 hour on a plate shaker, plates were washed as before. The detection antibody (Anti-pro-collagen type I C-terminal pro-peptide, human PICP, Caltag Medsystmes Ltd) was diluted to 800 ng/ml in 10 mg/ml blocker A solution. This antibody had previously been Sulfo-Tagged using Sulfo-Tag NHS Ester (MSD) according to manufacturer's instructions. 25 μl of the diluted sulfo-tagged detection antibody was added, and left as before on a plate shaker for 1 hour. […] 150 μl of 1× Read buffer T was added per well, and the plates read on the MSD sector reader. […]
Substance,% KD Mouse (CTGF mRNA [1]),% KD Human (CTGF mRNA [2]),% KD CTGF mRNA at 10 nM (CTGF mRNA [2]),IC50 (CTGF mRNA [2]),Collagen secretion (PICP secretion) induced by TGF-β1 [3]
"48046-DC: siNA duplex; sense SEQ ID NO: 57 B cAcAGcAccAGAAuGuAuA TTB; antisense SEQ ID NO: 58 UAUAcAuucuGGuGcuGuGUU (sense CACAGCACCAGAAUGUAUATT; antisense UAUACAUUCUGGUGCUGUGUU; sense: DNA at AGT, 2'-fluoro at CU, [invAb] at 5' end, 3' end, backbone not given here; antisense: sugars from the 5' end rrrmfmffffmmfmffmfmmm, backbone not given here)",19 ± 3%,85 ± 3%,85 ± 3%,0.031 ± 0.011 nM,–
"48042-DC: siNA duplex; sense SEQ ID NO: 49 B GAcAuuAAcucAuuAGAcu TTB; antisense SEQ ID NO: 50 AGUcuAAuGAGuuAAuGucUU (sense GACAUUAACUCAUUAGACUTT; antisense AGUCUAAUGAGUUAAUGUCUU; sense: DNA at AGT, 2'-fluoro at CU, [invAb] at 5' end, 3' end, backbone not given here; antisense: sugars from the 5' end rrrffmmfmmmffmmfmffmm, backbone not given here)",30 ± 4%,90 ± 1%,90 ± 1%,0.095 ± 0.022 nM,returned the levels of PICP secretion to near basal levels
"48048-DC: siNA duplex; sense SEQ ID NO: 61 B GAuAGcAucuuAuAcGAGu TTB; antisense SEQ ID NO: 62 ACUcGuAuAAGAuGcuAucUU (sense GAUAGCAUCUUAUACGAGUTT; antisense ACUCGUAUAAGAUGCUAUCUU; sense: DNA at AGT, 2'-fluoro at CU, [invAb] at 5' end, 3' end, backbone not given here; antisense: sugars from the 5' end rrrfmfmfmmmmfmffmffmm, backbone not given here)",21 ± 5%,80 ± 3%,80 ± 3%,0.049 ± 0.016 nM,returned the levels of PICP secretion to near basal levels
"48047-DC: siNA duplex; sense SEQ ID NO: 59 B cGAGuAAuAuGccuGcuAu TTB; antisense SEQ ID NO: 60 AUAGcAGGcAuAuuAcucGUU (sense CGAGUAAUAUGCCUGCUAUTT; antisense AUAGCAGGCAUAUUACUCGUU; sense: DNA at AGT, 2'-fluoro at CU, [invAb] at 5' end, 3' end, backbone not given here; antisense: sugars from the 5' end rrrmfmmmfmfmffmfffmmm, backbone not given here)",18 ± 3%,81 ± 3%,81 ± 3%,0.071 ± 0.03 nM,–
"48055-DC: siNA duplex; sense SEQ ID NO: 75 B cAAGuuAuuuAAAucuGuu TTB; antisense SEQ ID NO: 76 AACAGAuuuAAAuAAcuuGUU (sense CAAGUUAUUUAAAUCUGUUTT; antisense AACAGAUUUAAAUAACUUGUU; sense: DNA at AGT, 2'-fluoro at CU, [invAb] at 5' end, 3' end, backbone not given here; antisense: sugars from the 5' end rrrmmmfffmmmfmmfffmmm, backbone not given here)",24 ± 2%,88 ± 0%,88 ± 0%,0.11 ± 0.038 nM,–
